We go through nine compounds from patent publication US20120053053A1, “PYRIMIDINE DERIVATIVES AND THEIR USE AS HERBICIDES” (SYNGENTA CROP PROTECTION, LLC, priority 2009, published 2012).

Common to all, as to assay type: in vivo
The test system of test [1] is Ipomea hederaceae (IPOHE). Nature of the test: Pre-emergence biological efficacy (percentage damage). To be noted: Ipomoea hederacea, 312 h, evaluated after 13 days, 100=total damage, 0=no damage; for pest or weed control at 1000 g/ha: dose 1,000 g/ha. How it is done:
(§1) Seeds of Alopecurus myosuroides (ALOMY), Setaria faberi (SETFA), Echinochloa crus-galli (ECHCG), Solanum nigrum (SOLNI), Amaranthus retoflexus (AMARE) and Ipomea hederaceae (IPOHE) were sown in standard soil in pots. After cultivation for one day under controlled conditions in a glasshouse (at 24/16° C., day/night; 14 hours light; 65% humidity), the plants were sprayed with an aqueous spray solution derived from the formulation of the technical active ingredient in acetone/water (50:50) solution containing 0.5% Tween 20 (polyoxyethylene sorbitan monolaurate, CAS RN 9005-64-5) to give a final dose of 250 or 1000 g/ha of test compound. The test plants were then grown under controlled conditions in the glasshouse (at 24/16° C., day/night; 14 hours light; 65% humidity) and watered twice daily. After 13 days the test was evaluated (100=total damage to plant; 0=no damage to plant).

For test [2], the system named is Solanum nigrum (SOLNI). The description is as above. To be noted: Solanum nigrum, 312 h, evaluated after 13 days, 100=total damage, 0=no damage; for pest or weed control at 1000 g/ha: dose 1,000 g/ha. The method, then:
as §1

Test [3] deals with Setaria faberi (SETFA). The description is as above. To be noted: Setaria faberi, 312 h, evaluated after 13 days, 100=total damage, 0=no damage; for pest or weed control at 1000 g/ha: dose 1,000 g/ha. How it is done: as §1
In test [4] the test system is Amaranthus retoflexus (AMARE). The test is described as above. To be noted: Amaranthus retroflexus, 312 h, evaluated after 13 days, 100=total damage, 0=no damage; for pest or weed control at 1000 g/ha: dose 1,000 g/ha. The method, then: as §1
For test [5], the system named is Alopecurus myosuroides (ALOMY). The test is described as above. To be noted: Alopecurus myosuroides, 312 h, evaluated after 13 days, 100=total damage, 0=no damage; for pest or weed control at 1000 g/ha: dose 1,000 g/ha. The method, then:
as §1

The test system of test [6] is Echinochloa crus-galli (ECHCG). The description is as above. To be noted: Echinochloa crus-galli, 312 h, evaluated after 13 days, 100=total damage, 0=no damage; for pest or weed control at 1000 g/ha: dose 1,000 g/ha. How it is done: as §1
The subject of test [7] is Ipomea hederaceae (IPOHE). The experiment in a line: Post-emergence biological efficacy (percentage damage). To be noted: Ipomoea hederacea, 312 h, evaluated after 13 days, 100=total damage, 0=no damage; for pest or weed control at 1000 g/ha: dose 1,000 g/ha. How it is done:
as §1, with “for 8 days” for “for one day”, “grown on” for “grown”, “in a” for “in the”

The test system of test [8] is Solanum nigrum (SOLNI). The test is described as above. To be noted: Solanum nigrum, 312 h, evaluated after 13 days, 100=total damage, 0=no damage; for pest or weed control at 1000 g/ha: dose 1,000 g/ha. How it is done:
as §1, with “for 8 days” for “for one day”, “grown on” for “grown”, “in a” for “in the”

The test system of test [9] is Setaria faberi (SETFA). Described as above. To be noted: Setaria faberi, 312 h, evaluated after 13 days, 100=total damage, 0=no damage; for pest or weed control at 1000 g/ha: dose 1,000 g/ha. How it is done: as §1, with “for 8 days” for “for one day”, “grown on” for “grown”, “in a” for “in the”
In test [10] the test system is Amaranthus retoflexus (AMARE). The test is described as above. To be noted: Amaranthus retroflexus, 312 h, evaluated after 13 days, 100=total damage, 0=no damage; for pest or weed control at 1000 g/ha: dose 1,000 g/ha. The method, then: as §1, with “for 8 days” for “for one day”, “grown on” for “grown”, “in a” for “in the”
Test [11] concerns Alopecurus myosuroides (ALOMY). The test is described as above. To be noted: Alopecurus myosuroides, 312 h, evaluated after 13 days, 100=total damage, 0=no damage; for pest or weed control at 1000 g/ha: dose 1,000 g/ha. The method, then: as §1, with “for 8 days” for “for one day”, “grown on” for “grown”, “in a” for “in the”
Test [12] relates to Echinochloa crus-galli (ECHCG). The description is as above. To be noted: Echinochloa crus-galli, 312 h, evaluated after 13 days, 100=total damage, 0=no damage; for pest or weed control at 1000 g/ha: dose 1,000 g/ha. The method, then: as §1, with “for 8 days” for “for one day”, “grown on” for “grown”, “in a” for “in the”

Take `CCC/C=C/c1c(N)nc(C2CC2)nc1C(=O)OC` [Compound 2-65, 4-Amino-2-cyclopropyl-6-methoxycarbonyl-5-(pent-1-enyl)-pyrimidine]: the pest or weed control at 250 g/ha (in test [1]; in the test with Solanum nigrum (SOLNI) [2]; in the test on Setaria faberi (SETFA) [3]; in test [4]; in test [5]; in [6]) was 0% in each case. Moreover, the pest or weed control (in general, how far the test organism was held down) at 250 g/ha in [7] worked out at 40%; in the test with Solanum nigrum (SOLNI) [8] it was 40%; in the test with Setaria faberi (SETFA) [9] it was 0%; in [10], 20%; in test [11], 0%; in [12], 0%.

As for `COC(=O)c1nc(C2CC2)nc(N)c1C=C(C)C` [Compound 2-69, 4-Amino-2-cyclopropyl-6-methoxycarbonyl-5-(2-methylprop-1-enyl)-pyrimidine], the pest or weed control at 1000 g/ha in test [1] stood at 70%; in the test with Solanum nigrum (SOLNI) [2], 90%; in the test on Setaria faberi (SETFA) [3], 0%; in test [4], 100%; in [5] it was 10%; in [6], 0%. Moreover, the pest or weed control at 1000 g/ha in test [7] is 70%; in the test on Solanum nigrum (SOLNI) [8] it was 80%; in the test with Setaria faberi (SETFA) [9], 10%; in [10], 20%; in [11], 10%; in test [12], 0%.

For `COC(=O)c1nc(C2CC2)nc(N)c1C#CC(C)(C)C` [Compound 2-77, 4-Amino-2-cyclopropyl-5-(3,3-dimethylbut-1-ynyl)-6-methoxycarbonyl-pyrimidine], the pest or weed control at 250 g/ha (in [1]; with Solanum nigrum (SOLNI) [2]; in the test with Setaria faberi (SETFA) [3]; in [4]; in test [5]; in test [6]) was 0% each time. The pest or weed control at 250 g/ha in test [7] is 70%; with Solanum nigrum (SOLNI) [8], 40%; in the test with Setaria faberi (SETFA) [9], 0%; in test [10], 30%; in test [11] it was 0%; in test [12], 0%.

For `COC(=O)c1nc(C2CC2)nc(N)c1C#C[Si](C)(C)C` [Compound 2-78, 4-amino-2-cyclopropyl-6-methoxycarbonyl-5-(trimethylsilylethynyl)-pyrimidine], the pest or weed control at 1000 g/ha in test [1] was 100%; with Solanum nigrum (SOLNI) [2] it was 90%; in the test with Setaria faberi (SETFA) [3] it was 10%; in [4], 90%; in test [5], 20%; in test [6], 30%. For the same compound, the pest or weed control at 1000 g/ha in [7] was found to be 100%; with Solanum nigrum (SOLNI) [8] it was 100%; in the test on Setaria faberi (SETFA) [9] it was 60%; in test [10], 100%; in [11] it was 30%; in [12] it was 60%.

As for `COC(=O)c1nc(C2CC2)nc(N(C)C)c1C` [Compound 2-221, 2-Cyclopropyl-4-dimethylamino-6-methoxycarbonyl-5-methylpyrimidine], the pest or weed control at 1000 g/ha in test [1] worked out at 70%; with Solanum nigrum (SOLNI) [2] it was 60%; with Setaria faberi (SETFA) [3] it was 0%; in test [4], 60%; in test [5], 30%; in [6], 0%. For the same compound, the pest or weed control at 1000 g/ha in test [7] was found to be 80%; with Solanum nigrum (SOLNI) [8], 80%; in the test on Setaria faberi (SETFA) [9], 60%; in [10], 100%; in test [11] it was 20%; in [12] it was 70%.

For `C=Cc1c(C(=O)OC)nc(C2CC2)nc1N(C)C` [Compound 2-225, 2-Cyclopropyl-4-dimethylamino-5-ethenyl-6-methoxycarbonyl-pyrimidine], the pest or weed control at 1000 g/ha was found to be 20% in test [1]; 0% in the test on Solanum nigrum (SOLNI) [2]; 0% in the test with Setaria faberi (SETFA) [3]; 40% in test [4]; 0% in test [5]; 0% in [6]. The pest or weed control at 1000 g/ha in test [7] worked out at 30%; in the test on Solanum nigrum (SOLNI) [8], 50%; with Setaria faberi (SETFA) [9], 0%; in test [10], 40%; in test [11] it was 0%; in [12] it was 0%.

In the case of `COC(=O)COc1nc(C2CC2)nc(N)c1C` [Compound 2-362, 4-amino-2-cyclopropyl-6-methoxycarbonylmethoxy-5-methylpyrimidine], the pest or weed control at 1000 g/ha in test [1] stood at 30%; with Solanum nigrum (SOLNI) [2] it was 10%; with Setaria faberi (SETFA) [3], 40%; in [4], 40%; in test [5], 40%; in [6] it was 10%. Besides, the pest or weed control at 1000 g/ha in test [7] stood at 80%; in the test with Solanum nigrum (SOLNI) [8] it was 80%; in the test on Setaria faberi (SETFA) [9], 70%; in [10], 80%; in test [11], 40%; in test [12], 60%.

Regarding `C=Cc1c(N)nc(SC)nc1OCC(=O)OC` [Compound 2-366, 4-amino-5-ethenyl-6-methoxycarbonylmethoxy-2-methylthio-pyrimidine], the pest or weed control at 1000 g/ha (in test [1]; in the test with Solanum nigrum (SOLNI) [2]; in the test on Setaria faberi (SETFA) [3]; in test [4]; in [5]; in [6]) was 0% each time. In addition, the pest or weed control at 1000 g/ha in test [7] amounted to 0%; with Solanum nigrum (SOLNI) [8] it was 20%; in the test with Setaria faberi (SETFA) [9], 0%; in test [10] it was 0%; in test [11] it was 0%; in test [12] it was 0%.

Take `Cc1c(Cl)nc(C2CC2)nc1OCC(=O)O` [Compound 2-375, (4-chloro-2-cyclopropyl-5-methyl-pyrimidin-6-yloxy)-acetic acid]: the pest or weed control at 1000 g/ha is 20% in test [1]; 0% in the test with Solanum nigrum (SOLNI) [2]; 0% with Setaria faberi (SETFA) [3]; 0% in test [4]; 0% in [5]; 0% in test [6]. Further, the pest or weed control at 1000 g/ha amounted to 20% in test [7]; 10% in the test on Solanum nigrum (SOLNI) [8]; 0% with Setaria faberi (SETFA) [9]; 10% in test [10]; 0% in test [11]; 0% in test [12].
